In patent US7825156B2, “Method of treating bipolar depression with a benzamide derivative” (Copharms, priority 2007, dated 2010):

Legend:
[1] = system: bipolar I disorder relapse; conditions: add-on treatment of bipolar I patients, cited from earlier work
bipolar depression = assay: Case reports: treatment of bipolar depression in patients with bipolar I or II disorder; conditions: for depressive disorders: amisulpride 150 mg/d
Description: Bipolar depressive patient is here defined as a patient with either Bipolar I Disorder, Most Recent Episode Depressed; Bipolar I Disorder, Most Recent Episode Mixed or Bipolar II Disorder (Recurrent Major Depressive Episodes With Hypomanic Episodes) (Classification 296.5×, 296.6×, and 296.89 respectively of DSM-IV).
Subject diagnosed with bipolar II disorder, recurrent major depressive episodes with hypomanic episodes). They are admitted for bipolar depression and amisulpride treatment of 200 mg/d is initiated.
Subject diagnosed with bipolar II disorder, recurrent major depressive episodes with hypomanic episodes). They are admitted for bipolar depression and amisulpride treatment of 100 mg/d is initiated.
Subject, diagnosed with bipolar disorder I, most recent episode depressed. Upon admission at the hospital a treatment with amisulpride 100 mg/g was initiated.
Subject diagnosed with bipolar I disorder, most recent episode mixed. The patient is hospitalised for bipolar depression and treatment with amisulpride 150 mg/g initiated.
Subject, diagnosed with bipolar I disorder, most recent episode depressed, for the first time. The patient has been on lithium for about 3 years. They are compliant with their treatment and lithium serum levels remains stable around 0.7-0.9 mEq/L. They are admitted for bipolar depression with lithium serum level were 0.8 mEq/L. The day after they received an amisulpride treatment of 100 mg/d.
Subject, diagnosed with bipolar disorder I, most recent episode depressed, is hospitalized for manic state. Their illness started 4 years ago. The patient suffers bipolar disorder type I. The patient has already shown two manic episodes. At entrance, they received divalproate at a dose of 1250 mg/d. […] The patient was diagnosed with major depression. Then, a treatment with amisulpride (150 mg/d) is established.
Subject diagnosed with bipolar I disorder, most recent episode depressed. Their family informed the therapist of a dramatic decrease of their professional performance since 6 months. The patient is admitted for bipolar depression and amisulpride 250 mg/d is initiated.
Subject diagnosed with bipolar II disorder, recurrent major depressive episodes with hypomanic episodes).
Subject diagnosed with bipolar I disorder, most recent episode depressed. […] A treatment with amisulpride 150 mg/d is then initiated.
Subject diagnosed with bipolar I disorder, most recent episode mixed. […] The patient however refused to follow a long course treatment because they seemed not, according to themself and their family, present severe symptoms.
Subject diagnosed with bipolar I disorder, most recent episode depressed. […] At admission, their lithium serum level was 0.7 mEq/L and their valproate serum level was 100 mg/ml.
Subject diagnosed with bipolar I disorder, most recent episode depressed.
Subject diagnosed with bipolar I disorder, most recent episode depressed. After several manic and depressive episodes the patient seems stabilised with a combination of lithium 1600 mg/d and paroxetine 40 mg/d.
Upon admission at the hospital the lithium serum level are controlled and the treatment with paroxetine is stopped. A treatment with amisulpride 100 mg/d is established.

bipolar disorder = assay: Earlier treatments in the case histories (manic episodes, maintenance, earlier depressive condition); assay type: in vivo, patient; conditions: for manic episode, treatment outcome: Case 10, bipolar I, most recent episode mixed, haloperidol and levomepromazine given together
Description: At entrance, they received divalproate at a dose of 1250 mg/d. […] The patient was diagnosed with major depression. Then, a treatment with amisulpride (150 mg/d) is established.
A treatment with amisulpride 150 mg/d is then initiated.
At admission, their lithium serum level was 0.7 mEq/L and their valproate serum level was 100 mg/ml.

[2] = Serum levels of concomitant drugs in the case patients

With `CCN1CCCC1CNC(=O)c1cc(S(=O)(=O)CC)c(N)cc1OC` (stereo not drawn) [amisulpride, 4-amino-N-[(1-ethylpyrrolidin-2-yl)methyl]-5-(ethylsulfonyl)-2-methoxybenzamide] as the compound, how does the overall relapse rate ([1]; period of amisulpride therapy, Clin Pract Epidemiol Ment Health 2006, 2:19) read?
Its overall relapse rate is “statistically significant decrease”.

What about the “relapse rate, manic episodes” value ([1]; only manic episodes) of the same compound?
The value was “reached statistical significance”.

And the depressive state (bipolar depression; Case 1, bipolar II, amisulpride 200 mg/d, after 4 weeks)?
Its depressive state is “started to markedly decrease”.

What about the depressive state (bipolar depression; Case 1, bipolar II, amisulpride 200 mg/d, after 6 weeks) of the same compound?
The depressive state was “disappeared completely”.

And the “manic or depressive recurrence” value (bipolar depression; Case 1, after 3 years of amisulpride 100 mg/d)?
The value was “no manic or depressive recurrence”.

What about the depressive condition (bipolar depression; Case 2, bipolar II, amisulpride 100 mg/d, after 3 weeks) of the same compound?
Its depressive condition is “improved”.

What about the relapse (bipolar depression; Case 2, after 4 years of amisulpride 100 mg/d) of the same compound?
The relapse was “any relapse has still not occurred”.

What about the depressive disorder (bipolar depression; Case 3, bipolar I, most recent episode depressed, amisulpride 100 mg/g, after 3 weeks) of the same compound?
The depressive disorder was “significant improvement”.

What about the relapse (bipolar depression; Case 3, after 4 years of amisulpride 50 mg/d) of the same compound?
Its relapse is “no relapse”.

And the depressive disorder (bipolar depression; Case 4, bipolar I, most recent episode mixed, amisulpride 150 mg/g, early course)?
The depressive disorder was “rapidly improved”.

What about the relapse (bipolar depression; Case 4, after 4 years of amisulpride 150 mg/d) of the same compound?
Its relapse is “no relapse”.

What about the depressive disorder (bipolar depression; Case 4, amisulpride 150 mg/g, after 4 weeks) of the same compound?
The depressive disorder was “disappeared”.

What about the depressive state (bipolar depression; Case 5, bipolar I, most recent episode depressed, on lithium, amisulpride 100 mg/d, after 3 weeks) of the same compound?
Its depressive state is “started to vanish progressively”.

What about the depressive state (bipolar depression; Case 5, on lithium, amisulpride 100 mg/d, after 6 weeks) of the same compound?
The depressive state was “disappeared completely”.

What about the “manic or depressive recurrence” value (bipolar depression; Case 5, after 3 years of treatment) of the same compound?
Its value is “no manic or depressive recurrence”.

What about the depressive disorders (bipolar depression; Case 6, major depression after divalproate, early course) of the same compound?
The depressive disorders was “improved rapidly”.

What about the depressive disorders (bipolar depression; Case 6, after 3 weeks) of the same compound?
The depressive disorders was “disappear”.

What about the anxio-depressive element (bipolar depression; Case 7, bipolar I, most recent episode depressed, amisulpride 250 mg/d, after 3 weeks) of the same compound?
The anxio-depressive element was “disappears”.

What about the “recurrent manic or depressive episode” value (bipolar depression; Case 7, after 2 years of amisulpride 250 mg/d) of the same compound?
The value was “still not been subject to any recurrent manic or depressive episode”.

And the “patient's chart” value (bipolar depression; Case 8, after switching from clomipramine to amisulpride 200 mg/d)?
The value was “improved”.

And the relapse (bipolar depression; Case 8, amisulpride, after 6 months)?
Its relapse is “no relapse”.

And the “relapse of depressive or manic episodes” value (bipolar depression; Case 9, after 3 years, amisulpride 100 mg/d)?
The value was “no relapse of depressive or manic episodes”.

And the depressive condition (bipolar depression; Case 9, amisulpride 150 mg/d after fluoxetine, after 2 weeks)?
The depressive condition was “almost disappeared”.

And the relapse (bipolar depression; Case 10, after 7 months of amisulpride)?
Its relapse is “any relapse has still not occurred”.

What about the “patient's chart” value (bipolar depression; Case 10, amisulpride 300 mg/d, after only one month) of the same compound?
The value was “resolved the patient's chart”.

And the “manic or depressive relapses” value (bipolar depression; Case 11, after 4 years with amisulpride)?
The value was “no manic or depressive relapses”.

What about the depressive condition (bipolar depression; Case 11, amisulpride 50 mg/d added, after 15 days) of the same compound?
The depressive condition was “improved”.

What about the depressive condition (bipolar depression; Case 12, bipolar I, most recent episode depressed, 150 mg of amisulpride, after 4 weeks) of the same compound?
Its depressive condition is “recovery”.

And the relapse (bipolar depression; Case 12, after one year of 50 mg amisulpride)?
Its relapse is “No relapse”.

And the clinical course (bipolar depression; Case 13, bipolar I, most recent episode depressed, amisulpride 100 mg/d)?
The clinical course was “progressive improvement”.

What about the relapse (bipolar depression; Case 13, after two years of 100 mg/d) of the same compound?
Its relapse is “No relapse”.

And the catatonic condition (bipolar depression; Case 13, amisulpride 100 mg/d, after 6 weeks)?
The catatonic condition was “disappearance”.

And the “patient's state” value (bipolar depression; Case 14, after 3 years of amisulpride 200 mg/d)?
The value was “still remains stable”.

What about the clinical improvement (bipolar depression; Case 14, paroxetine stopped, lithium controlled, amisulpride 100 mg/d, after 3 weeks) of the same compound?
Its clinical improvement is “considerable improvement”.

What about the “effect on bipolar depression” value (bipolar depression; amisulpride about 50 mg/day to about 300 mg/day (about 20 to about 800 mg/day)) of the same compound?
Its value is “clinically beneficial effect”.

With `NC(=O)N1c2ccccc2C=Cc2ccccc21` [carbamazepine] as the compound, how does the therapeutic outcome (bipolar disorder; Case 9, carbamazepine 800 mg/d for 5 years) read?
The therapeutic outcome was “treated successfully”.

And the “serum level of carbamazepine” value ([2]; Case 9, carbamazepine 800 mg/d, at admission)?
Its value is 8 mg/L.

With `CN(C)CCCN1c2ccccc2CCc2ccc(Cl)cc21` [clomipramine] as the compound, how does the “patient's condition (anxiety, agitation, sleep disorders)” value (bipolar depression; Case 8, bipolar II, clomipramine 100 mg/d, according to their family) read?
Its value is “deteriorated”.

With `CCCC(CCC)C(=O)O.CCCC(CCC)C(=O)[O-].[Na+]` [divalproate] as the compound, how does the manic symptoms (bipolar disorder; Case 6, bipolar I, manic state, divalproate 1250 mg/d, after one month) read?
The manic symptoms was “disappeared”.

And the depressive condition (bipolar depression; Case 11, combination of lithium and divalproate 750 mg/d, lithium increased to obtain 0.9 mEq/L)?
Its depressive condition is “continued”.

With `CNCCC(Oc1ccc(C(F)(F)F)cc1)c1ccccc1` (stereo not drawn) [fluoxetine] as the compound, how does the depressive condition (bipolar depression; Case 9, fluoxetine 20 mg/d, after 3 weeks) read?
The depressive condition was “only a small improvement”.

With `O=C(CCCN1CCC(O)(c2ccc(Cl)cc2)CC1)c1ccc(F)cc1` [haloperidol] as the compound, how does the “manic episode, treatment outcome” value (bipolar disorder) read?
The value was “treated successfully”.

For `COc1ccc2c(c1)N(C[C@H](C)CN(C)C)c1ccccc1S2` [levomepromazine], which “manic episode, treatment outcome” value (bipolar disorder) is on record?
Its value is “treated successfully”.

With `[Li]` [lithium, lithium carbonate (Li2CO3)] as the compound, how does the lithium serum level ([2]; Case 5, at admission for bipolar depression) read?
The lithium serum level was 0.8 mEq/L.

And the lithium serum levels ([2]; Case 5, on lithium for about 3 years, stable level)?
Its lithium serum levels is 0.7-0.9 mEq/L.

And the lithium serum level ([2]; Case 11, lithium 1200 mg/d and divalproate 750 mg/d, at admission)?
Its lithium serum level is 0.7 mEq/L.

Which “patient's state” value (bipolar disorder; Case 14, bipolar I, combination of lithium 1600 mg/d and paroxetine 40 mg/d) does the source give for `Fc1ccc([C@@H]2CCNC[C@H]2COc2ccc3c(c2)OCO3)cc1` [paroxetine] here?
The value was “stabilised”.

Which “reactive depressive condition, response” value (bipolar disorder; Case 12, viloxazine during adolescence) does the source give for `CCOc1ccccc1OCC1CNCCO1` (stereo not drawn) [viloxazine] here?
Its value is “responded only moderately”.
